Tests used:
[1] = Solubility in aqueous DMSO; format: physicochemical
MUS81–EME1 = target: T1, MUS81–EME1 (Homo sapiens, UniProt Q96NY9); experiment: Gel-based in vitro nuclease assay: cleavage of 3′flap DNA by purified MUS81–EME1; format: biochemical; settings: for activity in the in vitro assay: negative control compounds
T1 construct: The MUS81–EME1 full-length expression plasmid was obtained from Stephen C; West; made in house; host or cells: Escherichia coli
T1 sequence (Q96NY9 1-551): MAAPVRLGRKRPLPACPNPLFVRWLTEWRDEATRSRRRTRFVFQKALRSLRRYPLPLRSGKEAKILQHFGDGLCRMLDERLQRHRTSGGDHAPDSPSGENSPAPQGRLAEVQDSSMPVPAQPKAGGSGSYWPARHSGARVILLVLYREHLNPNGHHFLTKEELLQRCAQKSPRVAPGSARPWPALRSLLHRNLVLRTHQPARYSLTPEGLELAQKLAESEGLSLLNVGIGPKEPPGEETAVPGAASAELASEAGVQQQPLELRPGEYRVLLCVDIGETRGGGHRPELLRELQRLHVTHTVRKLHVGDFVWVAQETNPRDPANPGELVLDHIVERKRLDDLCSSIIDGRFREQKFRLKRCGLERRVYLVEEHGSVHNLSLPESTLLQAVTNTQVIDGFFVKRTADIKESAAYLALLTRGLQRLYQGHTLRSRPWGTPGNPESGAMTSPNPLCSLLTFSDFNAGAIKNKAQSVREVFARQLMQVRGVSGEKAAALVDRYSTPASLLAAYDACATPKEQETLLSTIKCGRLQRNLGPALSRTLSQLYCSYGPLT
T1 sequence (Q96AY2 1-570 partner): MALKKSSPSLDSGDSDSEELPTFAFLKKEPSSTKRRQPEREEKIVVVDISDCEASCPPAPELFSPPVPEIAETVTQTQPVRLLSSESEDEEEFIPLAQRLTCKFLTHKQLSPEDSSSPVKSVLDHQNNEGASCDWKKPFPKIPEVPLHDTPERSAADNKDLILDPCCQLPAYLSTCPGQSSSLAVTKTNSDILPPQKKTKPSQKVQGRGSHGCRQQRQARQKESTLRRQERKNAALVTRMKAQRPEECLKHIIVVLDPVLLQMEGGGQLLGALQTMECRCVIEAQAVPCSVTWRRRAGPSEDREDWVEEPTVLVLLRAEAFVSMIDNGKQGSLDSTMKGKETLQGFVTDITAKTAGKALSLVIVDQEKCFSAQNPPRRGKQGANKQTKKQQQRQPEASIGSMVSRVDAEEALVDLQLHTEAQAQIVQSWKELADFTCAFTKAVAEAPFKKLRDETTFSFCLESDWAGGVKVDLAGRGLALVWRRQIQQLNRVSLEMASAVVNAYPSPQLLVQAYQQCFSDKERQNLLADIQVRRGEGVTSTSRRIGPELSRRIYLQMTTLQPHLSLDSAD
Protocol: To identify the small-molecule inhibitors of MUS81, we used two complementary screening approaches. The first involved a structure-based virtual screening, where over 140,000 small molecules were docked into the active site of MUS81 using AutoDock Vina software. […] The cleavage by purified MUS81-EME1 was monitored by gel electrophoresis, and the compound activity was quantified by measuring the reduction in cleavage product intensity.
Nuclease assays were performed in reaction buffer containing 50 mM Tris pH 7.5, 10 mM MgCl2, 1 mM DTT, 85 mM KCl, and 20% glycerol. Purified MUS81–EME1 (1 nM) was preincubated in 9 μL reaction with indicated concentrations of inhibitors for 15 min at room temperature, followed by the addition of 3 nM of a 3′flap DNA substrate (listed in Supplementary Table 9) and a further incubation for 15 min at 37 °C. The final concentration of DMSO in the reactions was 2%. The reactions were stopped by the addition of 0.1% SDS and 500 μg/mL of proteinase K, followed by incubation for 5 min at 37 °C. […] The fluorescent DNA was visualized using a FLA-9000 (Fujifilm). Bands corresponding to cleaved substrates were selected for quantification using the MultiGauge 3.2 software. Final data represent integrated density of these bands with background subtraction. Fitting of the data with sigmoid curves was performed in OriginPro (OriginLab).

[2] = target: T2, MUS81–EME1 binding to 3′ flap DNA substrate (Homo sapiens, UniProt Q96NY9); experiment: Electrophoretic mobility shift assay (EMSA); settings: MUS81–EME1 160 nM, no MgCl2
T2 construct: The MUS81–EME1 full-length expression plasmid was obtained from Stephen C; West; made in house; host or cells: Escherichia coli
T2 sequence (Q96NY9 1-551): T1 sequence (Q96NY9 1-551)
T2 sequence (Q96AY2 1-570 partner): T1 sequence (Q96AY2 1-570 partner)
Protocol: (A,B) Purified MUS81–EME1 (160 nM) was incubated with increasing concentrations of MU262, MU876, or their respective control analogues, followed by the addition of 3 nM fluorescently labeled 3′ flap DNA substrate. MgCl2 was omitted from the reaction buffer to prevent substrate cleavage. The reaction products were resolved on a native PAGE gel. The lower band represents a free DNA substrate, while the upper smear corresponds to the MUS81–DNA complex. n = 3.
Purified MUS81–EME1 (160 nM) was incubated in a modified assay buffer without MgCl2 (50 mM Tris–HCl pH 7.4, 150 mM NaCl, and 0.05% Tween-20) with 15 nM of a 3′flap DNA substrate (listed in Supplementary Table 5) in the absence or presence of selected inhibitors at RT for 10 min, followed by an incubation at 25 °C for 10 min. The reaction was stopped on ice and products were resolved using native PAGE (7.5% acrylamide gel in 0.5% TBE) at 4 °C for 50 min (6.5 V/cm). Gel images were captured using a FLA-9000 (Fujifilm) and Typhoon (Amersham) scanners and quantified with Multi Gauge V3.2 software (Fujifilm).

U2OS cells [3] = experiment: EdU/PI cell cycle assay; format: cell-based; settings: CPT 100 μM for the last 16 h
Protocol: (§1) Given these promising findings, we further investigated the specificity of MU262 and MU876 and potential short-term cytotoxicity. To mirror the treatment duration used in BIR and HR assays, U2OS cells were exposed to the inhibitors or siRNA for 3 days.
U2OS WT cells (300,000) were seeded in a 6-well plate; a subset of them was treated with either control siRNA or siRNA targeting MUS81. After adhesion, cells were treated with the respective inhibitors for 72 h during which CPT ([…], Sigma-Aldrich) was added for the last 16 h and 10 μM EdU (Sigma-Aldrich) was added for the last 1 h. Cells were then harvested and stained by using the Click-iT EdU Alexa Fluor 647 Flow Cytometry Assay Kit (Thermo Fisher Scientific). Finally, cells were resuspended in 1xPBS containing 5 μg/mL of propidium iodide (PI) and analyzed using a BD FACSVerse flow cytometer (Becton Dickinson) and FlowJo software (BD Life Sciences). At least 20,000 cells were used for each measurement, and experiments were performed in duplicates.

U2OS cells [4] = experiment: Annexin V apoptotic assay; format: cell-based; settings: CPT 100 μM for the last 2 h
Protocol: as §1
U2OS WT cells (300,000) were seeded in a 6-well plate, a subset of them was treated with either control siRNA or siRNA targeting MUS81. After adhesion, cells were treated with the respective inhibitors for 72 h during which CPT (100 μM, Sigma-Aldrich) was added for the last 2 h. Cells were harvested, washed in ice-cold PBS, and collected by centrifugation at 500g for 5 min. Cells were simultaneously stained with FITC-labeled annexin V antibody (556419, Becton Dickinson) and PI (5 μL) at room temperature for 15 min, protected from light. Stained cells were analyzed using a BD FACSVerse flow cytometer (Becton Dickinson) and FlowJo software (BD Life Sciences). At least 20,000 cells were used for each measurement, and experiments were performed in duplicates.

## Nc1c(-c2nc3ccccc3[nH]2)nnc2cc(-c3ccccc3)nn12 [Compound 15]
[1]
  solubility in aqueous DMSO: only sparingly soluble in aqueous DMSO

## CCc1nn2c(O)c(-c3nccn3C)nnc2c1-c1ccc(F)cc1 [Compound 25]
MUS81–EME1; Table 1, in vitro
  IC50: > 40 µM
MUS81–EME1
  activity in the in vitro assay: no activity

## Nc1c(-c2nc3ccccc3[nH]2)nnc2cc(-c3ccccc3Oc3ccccc3)nn12 [Compound 13]
[1]
  solubility in aqueous DMSO: only sparingly soluble in aqueous DMSO

## Nc1c(-c2nc3ccccc3[nH]2)nnc2cc(-c3ccc4ccccc4c3)nn12 [Compound 14]
[1]
  solubility in aqueous DMSO: only sparingly soluble in aqueous DMSO

## Cn1nc(-c2ccccc2)cc1NC(=O)c1cc(-c2ccccc2)on1 [Compound 46]
MUS81–EME1; Table 2, in vitro
  IC50: > 10 µM

## CCc1nn2c(O)c(-c3nc4ccccc4n3CCN(C)C)nnc2c1-c1ccc(F)cc1 [Compound 23]
MUS81–EME1; Table 1, in vitro
  IC50: > 10 µM

## COc1ccc(-c2cc(C(=O)Nc3cc(-c4ccccc4)nn3-c3nc(C)cc(=O)[nH]3)no2)cc1 [Compound 40]
MUS81–EME1; Table 2, in vitro
  IC50: > 10 µM

## CCc1nn2c(N)c(-c3ncc[nH]3)nnc2c1-c1ccc(F)cc1 [Compound 27]
[1]
  solubility in aqueous DMSO: less soluble in aqueous DMSO

## Nc1c(-c2nc3ccccc3[nH]2)nnc2c(-c3ccc(F)cc3)cnn12 [Compound 4]
MUS81–EME1; Table 1, in vitro
  IC50: > 50 µM

## O=C(Nc1cc(-c2ccccc2)nn1-c1ncccn1)c1cc(-c2ccccc2)on1 [Compound 48]
MUS81–EME1; Table 2, in vitro
  IC50: > 10 µM

## CCc1nn2cc(-c3nc4ccccc4[nH]3)nnc2c1-c1ccc(F)cc1 [Compound 16]
MUS81–EME1; Table 1, in vitro
  IC50: > 10 µM

## Cc1cc(=O)[nH]c(-n2nc(-c3ccccc3)cc2N(C)C(=O)c2cc(-c3ccccc3)on2)n1 [Compound 45]
[2]
  effect on MUS81–EME1 binding to 3′ flap DNA (EMSA): no significant effect
MUS81–EME1; Table 2, in vitro
  IC50: > 10 µM
MUS81–EME1
  activity in the in vitro assay: no activity

## CC[C@@]1(O)C(=O)OCc2c1cc1n(c2=O)Cc2cc3ccccc3nc2-1 [CPT, camptothecin, reference compound]
U2OS cells [3]
  cell cycle profile: reduced the proportion of S phase cells
U2OS cells [4]
  apoptosis (Annexin V staining): robust apoptosis

## CCc1nn2c(N)c(C(N)=O)nnc2c1-c1ccc(F)cc1 [Compound 21]
MUS81–EME1; Table 1, in vitro
  IC50: > 50 µM

## Cc1cc(=O)[nH]c(-n2nc(-c3ccccc3)cc2NC(=O)c2cc(-c3ccccc3Br)on2)n1 [Compound 38]
MUS81–EME1; Table 2, in vitro
  IC50: > 10 µM

## CCc1nn2c(C)c(-c3nc4ccccc4[nH]3)nnc2c1-c1ccc(F)cc1 [Compound 17]
[2]
  effect on MUS81–EME1 binding to 3′ flap DNA (EMSA): neither MU262 nor its inactive analogue MU1066 disrupted the MUS81–DNA interaction
MUS81–EME1; Table 1, in vitro
  IC50: > 10 µM
MUS81–EME1
  activity in the in vitro assay: no activity

## O=C(Nc1cc(-c2ccccc2)nn1-c1ccccc1)c1cc(-c2ccccc2)on1 [Compound 47]
MUS81–EME1; Table 2, in vitro
  IC50: > 10 µM

## Cc1cc(=O)[nH]c(-n2nc(-c3ccccc3)c(C)c2NC(=O)c2cc(-c3ccccc3)on2)n1 [Compound 35]
MUS81–EME1; Table 2, in vitro
  IC50: > 10 µM

## COc1cc(C)nc(-n2nc(-c3ccccc3)cc2NC(=O)c2cc(-c3ccccc3)on2)n1 [Compound 49]
MUS81–EME1; Table 2, in vitro
  IC50: > 10 µM

## Nc1c(-c2nc3ccccc3[nH]2)nnc2cc(-c3cccc4ccccc34)nn12 [Compound 12]
MUS81–EME1; Table 1, in vitro
  IC50: 1.8 µM
[1]
  solubility in aqueous DMSO: only sparingly soluble in aqueous DMSO

## Nc1c(-c2nc3ccccc3[nH]2)nnc2ccnn12 [Compound 3]
MUS81–EME1; Table 1, in vitro
  IC50: > 50 µM

## CCc1cc2nnc(-c3nc4ccccc4[nH]3)c(N)n2n1 [Compound 5]
MUS81–EME1; Table 1, in vitro
  IC50: > 5 µM

## CCc1nn2c(O)c(-c3ncccn3)nnc2c1-c1ccc(F)cc1 [Compound 20]
MUS81–EME1; Table 1, in vitro
  IC50: > 40 µM

## COCc1cc(=O)[nH]c(-n2nc(-c3ccccc3)cc2NC(=O)c2cc(-c3ccccc3)on2)n1 [Compound 51]
MUS81–EME1; Table 2, in vitro
  IC50: > 10 µM

## Cc1cc(=O)[nH]c(-n2nc(-c3ccccc3)cc2NC(=O)c2csc(-c3ccccc3)n2)n1 [Compound 42]
MUS81–EME1; Table 2, in vitro
  IC50: > 10 µM

## Cc1cc(=O)[nH]c(-n2nc(C3CCCCC3)cc2NC(=O)c2cc(-c3ccccc3)on2)n1 [Compound 34]
MUS81–EME1; Table 2, in vitro
  IC50: > 10 µM

## CCc1nn2c(N)c(-c3nc4ccccc4n3Cc3ccccc3)nnc2c1-c1ccc(F)cc1 [Compound 22]
MUS81–EME1; Table 1, in vitro
  IC50: 8 µM

## CCc1nn2c(N)c(-c3nc4ccccc4[nH]3)nnc2c1-c1ccc(OC)cc1 [Compound 7]
MUS81–EME1; Table 1, in vitro
  IC50: > 25 µM

## CCc1nn2c(O)c(-c3nc4ccccc4n3CCN3CCOCC3)nnc2c1-c1ccc(F)cc1 [Compound 24]
MUS81–EME1; Table 1, in vitro
  IC50: > 10 µM

## Cc1cc(=O)[nH]c(-n2nc(-c3ccccc3)cc2NC(=O)c2cc(C3CCCCC3)on2)n1 [Compound 37]
MUS81–EME1; Table 2, in vitro
  IC50: > 10 µM

Reference: article PMC12990037, “Discovery of Two Structurally Distinct Classes of Inhibitors Targeting the Nuclease MUS81 and Enhancing Efficacy of Chemotherapy in Cancer Cells” (Journal of Medicinal Chemistry, 2026)
